Measured values reported in patent publication EP1377579B1 (Aventis Pharmaceuticals Inc., priority 2000, dated 2002).
Read-outs that look alike come from different tables or passages of the source.

Key:
HL-60 = assay: In vitro proliferation assay (MTT), HL-60; assay type: cell-based; conditions: Homo sapiens
Summary of the method: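 Viability was read as absorbance at 570 nm after DMSO solubilization of MTT dye, which was given to cultures for 2 to 4 hr at 37 C on day 3 of compound treatment. Cells were seeded overnight beforehand at 1000 to 2500/well. IC50 values came from MTT or SRB data.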

PC-3 = assay: In vitro proliferation assay (MTT), PC-3; assay type: cell-based, human; conditions: Homo sapiens
Summary of the method: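 Following 3 days of compound treatment, MTT was added and the dye dissolved in DMSO for 570 nm absorbance; IC50s derived from these raw readings. Seeding density 1000 to 2500 cells/well depending on line, with overnight recovery before dosing.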

[1] = system: PC-3 Human Prostate Tumors; assay: PC-3 human prostate tumor xenograft in nude mice; assay type: in vivo; parameters: unit not given here
Description: (§1) Antitumor efficacy is assessed using two subcutaneous human tumor xenograft models. The studies are performed using conventional assay techniques. Briefly, HL-60 (leukemia, 5 x10^5 cells) and PC-3 (prostate, 5 x 10^6 cells) tumor cells are injected subcuateously into nude mice (Crl-CD1-Br-nu, Charles River Laboratory, Wilmington, MA). Dosing with compounds began when tumors reached 50 to 100 mm^3. The dose route/schedule for the test compounds is ip/qld (5x/wk). The test doses are set based on the maximum tolerated dose (MTD). […] The test doses for the efficacy studies are set at 1/3rd the MTD (low dose) and the MTD (high dose). The results are shown in Tables 4 and 5 (HL-60, leukemia) (PC-3, prostate cancer). The length of the treatment phase is dependent on the tumor growth rate for the two models. This treatment phase is typically about 3 weeks for the HL-60 model and about 5 weeks for the PC-3 model. […] Dosing with flavopiridol is for the same time frame as for the experimental compounds in both xenograft models. Tumor volume (twice weekly) and body weights (once weekly) are monitored throughout the course of the treatment phase of the experiment. Tumor sizes are measured by external caliper measurements of protruding tumor. Volumes are calculated using the following formula: volume =½ (a x b2), where b is the smaller of two perpendicular diameters.

HL-60 Human Leukemia = assay: HL-60 human leukemia xenograft in nude mice; assay type: in vivo; parameters: key: tumor volume = ½(a × b²) from caliper diameters, in mm^3
Description: as §1

[2] = Red blood cell binding, human whole blood; assay type: in vitro ADME; conditions: 30 minutes at 37°C, 500 ng/ml
Description: Compounds, including one positive control, are assessed for red blood cell (RBC) uptake, using a modified procedure based on the protocol reported in Sun, J.X.S., et al. High-performance liquid chromatographic analysis, plasma protein binding and red blood cell partitioning of phenprobamate. Biopharmaceutics and Drug Disposition, 8 (1987) 341-351.
Briefly, RBC uptake is evaluated by comparison of the levels in spiked plasma (n=3) and plasma isolated from spiked whole blood (n=3). Compounds are incubated with human and mouse whole blood, respectively, for 30 minutes at 37°C using a nominal concentration of 500 ng/ml. Following centrifugation, the plasma is removed and submitted for analysis. Each compound is also spiked into blank plasma at a nominal concentration of 500 ng/ml, and submitted for analysis. Levels in the two plasma samples (Cp' and Cp in the equation below) and the blood hematocrit are used to determine the red blood cell to plasma ratio (Crbc/Cp). (Crbc)/(Cp) = (Cpʹ)/(Cp•H)-((1-H))/(H) [formula] In equation 1, Cp' is the level of drug in the spiked "blank" plasma, Cp is the level of drug in the plasma of spiked whole blood, and H is the hematocrit. The hematocrit values are determined as 0.4 for human whole blood and 0.41 for mouse whole blood. The samples are analyzed with ESI LC/MS, using positive ion detection with an internal standard.
The red blood cell to plasma ratio is determined for each compound using equation 1. Tables 6 and 7 summarize the respective mean Crbc/Cp values and standard deviations for mouse and human whole blood, respectively, in descending order based on the red blood cell to plasma ratio, where"*" denotes Positive Control, and "ND" denotes Not Determined. MDL 108552 is included as a positive control for red blood cell uptake. Table 6. Red Blood Cell to Plasma Ratio for compounds in mouse whole blood

cdk2/cyclin E = cdk2/cyclin E (Homo sapiens, UniProt P24941); assay: Cyclin-dependent kinase assay, cdk2/cyclin E; conditions: CDK2 IC50, nM, GST-pRb substrate, 10 µM ATP
[3] = Bioavailability experiment in mice given single intravenous cassette doses; conditions: for Conc. (ng/ml) in plasma / Conc. in plasma: mice; for Conc. (ng/ml) in plasma: 24 h, BLQ = below assay quantification limit; for Cls: mice plasma, single intravenous cassette dose; for Conc. in plasma: single 15 mg/kg intravenous cassette dose (3 mg/kg/compound), BLQ = below assay quantification limit (approximately 1 ng/ml)
[4] = HL-60, MTT assay, value (SD, n) where given, read-out: HL-60 Leuk. (IC50 µM)
[5] = PC-3, MTT assay, value (SD, n) where given, read-out: PC-3 Prostate (IC50 µM)
[6] = Cassette #1, single 18 mg/kg intravenous cassette dose
[7] = 3 mg/kg/compound (18 mg/kg Total Dose), Cassette #1
[8] = HL-60, read-out: HL-60 Leuk. (IC50 µM)
[9] = PC-3, read-out: PC-3 Prostate (IC50 µM)
[10] = Cassette #2, single 18 mg/kg intravenous cassette dose
[11] = 3 mg/kg/compound (18 mg/kg Total Dose), Cassette #2
[12] = 3 mg/kg/compound (15 mg/kg Total Dose), Cassette #3
[13] = 3 mg/kg/compound (15 mg/kg Total Dose), Cassette #4

SMILES | PC-3 Mean Vol. ± SD ([1]; Table 5, dose 3 mg/kg ip) | HL60 Mean Vol. ± SD (HL-60 Human Leukemia; Table 5, dose 3 mg/kg ip) | Mean Red Blood Cell to Plasma Ratio [2] | IC50 (cdk2/cyclin E) [nM] | IC50 (HL-60; [8]) [µM] | IC50 (PC-3; [9]) [µM] | PC-3 Mean Vol. ± SD ([1]; Table 4, dose 1 mg/kg ip) | PC-3 Mean Vol. ± SD ([1]; Table 4, dose 3 mg/kg ip) | HL60 Mean Vol. ± SD (HL-60 Human Leukemia; Table 4, dose 1 mg/kg ip) | HL60 Mean Vol. ± SD (HL-60 Human Leukemia; Table 4, dose 3 mg/kg ip) | also measured
Cl.Cl.N[C@H]1CC[C@H](Nc2nc(NC3CCN(C(=O)c4cccc(C(F)(F)F)c4F)CC3)c3ncn(C4CCCC4)c3n2)CC1 [compound 12, trans-1-{4-[2-(4-Amino-cyclohexylamino)-9-cyclopentyl-9H-purin-6-ylamino]-piperidin-1-yl}-1-(2-fluoro-3-trifluoromethyl-phenyl)-methanone dihydrochloride] | 1063 ± 693 | 4948 ± 2803 | 3.6 | 5 | – | – | – | – | – | – | IC50 (HL-60; [4]): 0.16 µM; IC50 (PC-3; [5]): 0.48 µM; PC-3 Mean Vol. ± SD ([1]; Table 5, dose 10 mg/kg ip): 1107 ± 606; HL60 Mean Vol. ± SD (HL-60 Human Leukemia; Table 5, dose 10 mg/kg ip): 2624 ± 2108; Conc. (ng/ml) in plasma [3, 6]: BLQ; Cls [3, 7]: 19.6 mL/min/kg
Cl.Cl.N[C@H]1CC[C@H](Nc2nc(NC3CCN(C(=O)Oc4ccc(Br)cc4)CC3)c3ncn(C4CCCC4)c3n2)CC1 [compound 81, trans-4-[2-(4-Amino-cyclohexylamino)-9-cyclopentyl-9H-purin-6-ylamino]-piperidine-1-carboxylic acid 4-bromo-phenyl ester dihydrochloride] | 1007 ± 1120 | 5104 ± 4014 | 5.3 | 39 | 0.02 | 0.12 | – | – | – | – | PC-3 Mean Vol. ± SD ([1]; Table 5, dose 1 mg/kg ip): 1258 ± 523; HL60 Mean Vol. ± SD (HL-60 Human Leukemia; Table 5, dose 1 mg/kg ip): 5802 ± 2996; Conc. (ng/ml) in plasma [3, 10]: BLQ; Cls [3, 11]: 75.8 mL/min/kg
COC(=O)c1ccc(OC(=O)N2CCC(Nc3nc(N[C@H]4CC[C@H](N)CC4)nc4c3ncn4C3CCCC3)CC2)cc1.Cl.Cl [compound 83, trans-4-[2-(4-Amino-cyclohexylamino)-9-cyclopentyl-9H-purin-6-ylamino]-piperidine-1-carboxylic acid 4-methoxycarbonyl-phenyl ester dihydrochloride] | 899 ± 593 | 5906 ± 2948 | 4.1 | 44 | 0.06 | 0.15 | – | – | – | – | PC-3 Mean Vol. ± SD ([1]; Table 5, dose 10 mg/kg ip): 1426 ± 1131; HL60 Mean Vol. ± SD (HL-60 Human Leukemia; Table 5, dose 10 mg/kg ip): 4057 ± 2599; Conc. (ng/ml) in plasma [3, 6]: BLQ; Cls [3, 7]: 111.4 mL/min/kg
COc1ccc(OC(=O)N2CCC(Nc3nc(N[C@H]4CC[C@H](N)CC4)nc4c3ncn4C3CCCC3)CC2)cc1.Cl.Cl [compound 84, trans-4-[2-(4-Amino-cyclohexylamino)-9-cyclopentyl-9H-purin-6-ylamino]-piperidine-1-carboxylic acid 4-methoxy-phenyl ester dihydrochloride] | 1386 ± 752 | 4886 ± 3467 | 2.0 | 9 | 0.04 | 0.12 | – | – | – | – | PC-3 Mean Vol. ± SD ([1]; Table 5, dose 1 mg/kg ip): 770 ± 567; HL60 Mean Vol. ± SD (HL-60 Human Leukemia; Table 5, dose 1 mg/kg ip): 4790 ± 6912; Conc. (ng/ml) in plasma [3, 10]: BLQ; Cls [3, 11]: 51.8 mL/min/kg
Cl.Cl.N[C@H]1CC[C@H](Nc2nc(NC3CCN(C(=O)Oc4ccc(F)cc4)CC3)c3ncn(C4CCCC4)c3n2)CC1 [compound 87, trans-4-[2-(4-Amino-cyclohexylamino)-9-cyclopentyl-9H-purin-6-ylamino]-piperidine-1-carboxylic acid 4-fluoro-phenyl ester dihydrochloride] | – | – | 8.4 | 42 | 0.05 | – | 3271 ± 2262 | 1396 ± 958 | 3718 ± 2715 | 7096 ± 3079 | Cls [3, 12]: 97.4 mL/min/kg; Conc. in plasma ([3]; Cassette #3, 24 h): BLQ^a
Cl.Cl.N[C@H]1CC[C@H](Nc2nc(NC3CCN(C(=O)Oc4ccc(Cl)cc4)CC3)c3ncn(C4CCCC4)c3n2)CC1 [compound 88, trans-4-[2-(4-Amino-cyclohexylamino)-9-cyclopentyl-9H-purin-6-ylamino]-piperidine-1-carboxylic acid 4-chloro-phenyl ester dihydrochloride] | – | – | 2.6 | 7 | 0.07 | 0.1 | 1601 ± 1348 | 2278 ± 2110 | 4415 ± 2740 | 2624 ± 2108 | Cls [3, 12]: 77.9 mL/min/kg; Conc. in plasma ([3]; Cassette #3, 24 h): BLQ
Cl.Cl.N[C@H]1CC[C@H](Nc2nc(NC3CCN(C(=O)Oc4ccc([N+](=O)[O-])cc4)CC3)c3ncn(C4CCCC4)c3n2)CC1 [compound 89, trans-4-[2-(4-Amino-cyclohexylamino)-9-cyclopentyl-9H-purin-6-ylamino]-piperidine-1-carboxylic acid 4-nitro-phenyl ester dihydrochloride] | – | – | 4.2 | 42 | 0.02 | 0.06 | 2572 ± 1052 | 866 ± 384 | 2444 ± 2291 | 4278 ± 2801 | Cls [3, 13]: 136.5 mL/min/kg; Conc. in plasma ([3]; Cassette #4, 24 h): BLQ
Cl.Cl.N[C@H]1CC[C@H](Nc2nc(NC3CCN(S(=O)(=O)c4ccc(F)cc4)CC3)c3ncn(C4CCCC4)c3n2)CC1 [compound 106, trans-N^2-(4-Amino-cyclohexyl)-9-cyclopentyl-N^6-[1-(4-fluoro-benzenesulfonyl)-piperidin-4-yl]-9H-purine-2,6-diamine dihydrochloride] | – | – | 3.9 | 8 | – | – | 1860 ± 741 | 1482 ± 906 | 4271 ± 3851 | 7368 ± 2592 | IC50 (HL-60; [4]): 0.1 µM; IC50 (PC-3; [5]): 0.82 µM; Cls [3, 13]: 113.7 mL/min/kg; Conc. in plasma ([3]; Cassette #4, 8 h, Mean ± SD): BLQ^a; Conc. in plasma ([3]; Cassette #4, 24 h): BLQ
